Experimental data reported in patent publication US10125126B2, “N-cycloalkyl-N-[(heterocyclylphenyl)methylene]-(thio)carboxamide derivatives” (BAYER CROPSCIENCE AG, priority 2012, dated 2018).

Key:
[1] = log P by HPLC on a reversed-phase column (C 18), EEC Directive 79/831 Annex V.A8; format: physicochemical; details: for logP: HPLC on reversed-phase column (C 18), 40° C., 0.1% aqueous formic acid and acetonitrile, linear gradient 10% to 90% acetonitrile
Outline: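 40° C; 0.1% aq. formic acid/acetonitrile, linear gradient 10→90% acetonitrile. Calibration: unbranched alkan-2-ones (C3–C16), known log P. log P from retention time, linear interpolation between neighbouring alkanones. lambda-max from UV 200–400 nm at peak maxima.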

[2] = system: Blumeria graminis f.sp. hordei; test: In vivo preventive test on Blumeria graminis (barley); details: 500 ppm of active ingredient, evaluated 7 days after inoculation
Protocol: (§1) In Vivo Preventive Test on Blumeria graminis (Barley) [table] To produce a suitable preparation of active compound, 1 part by weight of active compound or active compound combination is mixed with the stated amounts of solvent and emulsifier, and the concentrate is diluted with water to the desired concentration. To test for preventive activity, young plants are sprayed with the preparation of active compound or active compound combination at the stated rate of application. After the spray coating has been dried, the plants are dusted with spores of Blumeria graminis f.sp. hordei.

Leptosphaeria nodorum = test: In vivo preventive test on Leptosphaeria nodorum (wheat); details: 500 ppm of active ingredient, evaluated 8 days after inoculation
Protocol: as §1, with “Leptosphaeria nodorum Test (Wheat)” for “Blumeria graminis (Barley)”, “sprayed” for “dusted”, “a spore suspension” for “spores”, “Leptosphaeria nodorum. The plants remain for 48 hours in an incubation cabinet at approximately 20° C. and a relative atmospheric humidity of approximately 100%.” for “Blumeria graminis f.sp. hordei.”

Pyrenophora teres = test: In vivo preventive test on Pyrenophora teres (barley); details: 500 ppm of active ingredient; barley plants; 14 days after contamination
Protocol: In Vivo Preventive Test on Pyrenophora teres (Barley) […] Barley plants (“Plaisant” variety), sown in starter cups on a 50/50 peat soil pozzolana substrate and grown at 22° C., are treated at the 1 leaf stage (10 cm height) by spraying with the active ingredient prepared as described above. Plants, used as controls, are treated with the mixture of acetone/tween/DMSO/water not containing the active material. After 24 hours, the plants are contaminated by spraying the leaves with an aqueous suspension of Pyrenophora teres spores (12 000 spores per mL). The spores are collected from a 12-day-old culture. […] Grading (% of efficacy) is carried out 14 days after the contamination, in comparison with the control plants.

Puccinia recondita = test: In vivo preventive test on Puccinia recondita (brown rust on wheat); details: 500 ppm of active ingredient; wheat plants; 12 days after contamination
Outline: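 Wheat plants ("Scipion") at 1-leaf stage, grown at 22° C, were sprayed with compound, then inoculated 24 h later with Puccinia recondita spores (100 000 spores per mL). Efficacy (%) graded 12 days after inoculation relative to solvent-treated controls.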

Septoria tritici = test: In vivo preventive test on Septoria tritici (wheat); details: 500 ppm of active ingredient; wheat plants; 24 days after contamination
Outline: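 Scipion wheat grown at 22° C, sprayed at 1-leaf stage (10 cm); controls received acetone/tween/DMSO/water without active. Inoculated 24 h later with S. tritici spores (500 000/mL), held 72 h at 18° C, 100% RH, then 21 days at 90% RH. % efficacy vs controls scored 24 days post-inoculation.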

Sphaerotheca fuliginea = test: In vivo preventive test on Sphaerotheca fuliginea (powdery mildew on cucurbits); details: 500 ppm of active ingredient, gherkin plants, 12 days after contamination
Outline: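 Gherkin plants ("Vert petit de Paris") grown at 24 °C were sprayed at cotyledon stage Z11; controls received acetone/tween/DMSO/water without active. Inoculation 24 h later by spraying cotyledons with 100 000 spores/mL. Efficacy (%) graded 12 days post-contamination versus controls.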

Uromyces appendiculatus = test: In vivo preventive test on Uromyces appendiculatus (bean rust); details: 500 ppm of active ingredient; bean plants; 11 days after contamination
Outline: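 Saxa bean plants at 2-leaf stage, grown at 24° C., sprayed preventively with compound; 24 h later inoculated with U. appendiculatus spores (150 000 spores per mL). Percent efficacy graded 11 days after inoculation versus solvent-treated controls.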

Venturia inaequalis = test: In vivo preventive test on Venturia inaequalis (apples); details: 100 ppm of active ingredient, evaluated 10 days after inoculation
Protocol: In Vivo Preventive Test on Venturia inaequalis (apples) [table] To produce a suitable preparation of active compound, 1 part by weight of active compound is mixed with the stated amounts of solvent and emulsifier, and the concentrate is diluted with water to the desired concentration. To test for preventive activity, young plants are sprayed with the preparation of active compound at the stated rate of application. After the spray coating has dried on, the plants are inoculated with an aqueous conidia suspension of the causal agent of apple scab (Venturia inaequalis) and then remain for 1 day in an incubation cabinet at approximately 20° C. and a relative atmospheric humidity of 100%. The plants are then placed in a greenhouse at approximately 21° C. and a relative atmospheric humidity of approximately 90%.

Alternaria brassicae = test: In vivo preventive test on Alternaria brassicae (leaf spot on radish); details: 500 ppm of active ingredient; radish plants; 6 days after contamination
Protocol: In Vivo Preventive Test on Alternaria brassicae (Leaf Spot on Radish) […] Radish plants (“Pernod Clair” variety), sown in starter cups on a 50/50 peat soil pozzolana substrate and grown at 17° C., are treated at the cotyledon stage by spraying with the active ingredient prepared as described above. Plants, used as controls, are treated with the mixture of acetone/tween/DMSO/water not containing the active material. After 24 hours, the plants are contaminated by spraying the cotyledons with an aqueous suspension of Alternaria brassicae spores (50 000 spores per mL). The spores are collected from a 15-day-old culture. The contaminated radish plants are incubated at 20° C. and at 100% relative humidity. Grading (% of efficacy) is carried out 6 days after the contamination, in comparison with the control plants.

Botrytis cinerea = test: In vivo preventive test on Botrytis cinerea (grey mould); details: 500 ppm of active ingredient; gherkin plants; 4 to 5 days after contamination
Protocol: In Vivo Preventive Test on Botrytis cinerea (Grey Mould) […] Gherkin plants (“Vert petit de Paris” variety), sown in starter cups on a 50/50 peat soil pozzolana substrate and grown at 24° C., are treated at the Z11 cotyledon stage by spraying with the active ingredient prepared as described above. Plants, used as controls, are treated with the mixture of acetone/tween/DMSO/water not containing the active material. After 24 hours, the plants are contaminated by spraying the cotyledons with an aqueous suspension of cryopreserved Botrytis cinerea spores (50 000 spores per mL). The spores are suspended in a nutrient solution composed of 10 g/L of PDB, 50 g/L of D-Fructose, 2 g/L of NH4NO3 and 1 g/L of KH2PO4. The contaminated gherkin plants are incubated at 17° C. and at 90% relative humidity. Grading (% of efficacy) is carried out 4 to 5 days after the contamination, in comparison with the control plants.

SMILES	logP [1]	chromatographic logP ([1]; logP)	Efficacy [2] [%]	Efficacy (Leptosphaeria nodorum) [%]	Efficacy (Pyrenophora teres) [%]	Efficacy (Puccinia recondita) [%]	Efficacy (Septoria tritici) [%]	Efficacy (Sphaerotheca fuliginea) [%]	Efficacy (Uromyces appendiculatus) [%]	Efficacy (Venturia inaequalis) [%]	Efficacy (Alternaria brassicae) [%]	Efficacy (Botrytis cinerea) [%]	pest or weed control at 500 ppm (Sphaerotheca fuliginea; Podosphaera fuliginea, 288 h, read-out: Efficacy) [%]
Cn1nc(C(F)F)c(C(=O)N(Cc2ccccc2C2(C)CO2)C2CC2)c1F (stereo not shown) [I.3]	2.68		100	92	88	94	100	100	100	96			
Cn1nc(C(F)F)c(C(=O)N(Cc2cc(Cl)ccc2-c2ccoc2)C2CC2)c1F [I.28]	3.64				79	94	97		99		96		
Cn1nc(C(F)F)c(C(=O)N(Cc2ccccc2-c2ccoc2)C2CC2)c1F [I.29]	3.23				93	81	96		100		82	100	
CC(C)c1ccc(-c2ccn(C)c2)cc1CN(C(=O)c1c(C(F)F)nn(C)c1F)C1CC1 [I.50]	3.99				100	100	97	100	99		96	99	
Cn1cc(-c2ccccc2CN(C(=O)c2c(C(F)F)nn(C)c2F)C2CC2)cn1 [I.54]	2.34					80	100	95	97		83	97	
Cc1csc(-c2ccccc2CN(C(=O)c2c(C(F)F)nn(C)c2F)C2CC2)c1 [I.100, N-cyclopropyl-3-(difluoromethyl)-5-fluoro-1-methyl-N-[2-(4-methyl-2-thienyl)benzyl]-1H-pyrazole-4-carboxamide]		3.99	100	83	95	100	100		100			80	100
Cc1csc(-c2ccc(F)cc2CN(C(=O)c2c(C(F)F)nn(C)c2F)C2CC2)c1 [I.101]	4.09				95	100	100	100	100		83	99	
Cc1cscc1-c1ccc(F)cc1CN(C(=O)c1c(C(F)F)nn(C)c1F)C1CC1 [I.102]	3.94					100	95	100	100		83	94	
Cc1cscc1-c1ccc(Cl)cc1CN(C(=O)c1c(C(F)F)nn(C)c1F)C1CC1 [I.104]	4.34				70	95	88	100	100		83	93	
Cc1cscc1-c1ccccc1CN(C(=O)c1c(C(F)F)nn(C)c1F)C1CC1 [I.105]	3.90		100		97	100	80	100	100				

Now from value to compound, other results behind:

logP [1]	chromatographic logP ([1]; logP)	SMILES	Efficacy [2] [%]	Efficacy (Leptosphaeria nodorum) [%]	Efficacy (Pyrenophora teres) [%]	Efficacy (Puccinia recondita) [%]	Efficacy (Septoria tritici) [%]	Efficacy (Sphaerotheca fuliginea) [%]	Efficacy (Uromyces appendiculatus) [%]	Efficacy (Venturia inaequalis) [%]	Efficacy (Alternaria brassicae) [%]	Efficacy (Botrytis cinerea) [%]	pest or weed control at 500 ppm (Sphaerotheca fuliginea; Podosphaera fuliginea, 288 h, read-out: Efficacy) [%]
4.06		Cn1nc(C(F)F)c(C(=O)N(Cc2cc(F)ccc2-c2coc3ccccc23)C2CC2)c1F [I.129]			86		90	100	96		97	92	
4.44		Cn1nc(C(F)F)c(C(=O)N(Cc2cc(Cl)ccc2-c2coc3ccccc23)C2CC2)c1F [I.130]			79	81	93	100	85		96		
3.96		Cn1nc(C(F)F)c(C(=O)N(Cc2ccccc2-c2coc3ccccc23)C2CC2)c1F [I.131]			93	75	96	98			91	100	
4.04		Cn1nc(C(F)F)c(C(=O)N(Cc2cc(F)ccc2-c2ccsc2Cl)C2CC2)c1F [I.136]			86	98	93	100	100		70		
4.41		Cn1nc(C(F)F)c(C(=O)N(Cc2cc(Cl)ccc2-c2ccsc2Cl)C2CC2)c1F [I.137]			79	88	97	100			70		
4.32		Cn1nc(C(F)F)c(C(=O)N(Cc2ccccc2-c2ccc(Cl)s2)C2CC2)c1F [I.139]			100	94	96		100	100	73	100	
4.39		Cn1nc(C(F)F)c(C(=O)N(Cc2cc(F)ccc2-c2csc3ccccc23)C2CC2)c1F [I.154]			71	75	96	98			75		
